From patent US20260240976A1, “T[…] VACCINES BASED ON VALIDATED TARGET EPITOPES” (Deutsches Krebsforschungszentrum Stiftung des öffentlichen …, priority 2023, published 2026)

tested on: short-term antigen-specific T cell lines generated from PBMCs; experiment: Interferon-γ ELISpot assay on short-term antigen-specific T cell lines; format: cell-based, human; conditions: HLA restriction A01; on ELISpot: Immungenicity of the peptide shown by IFN-gamma ELISPOT analysis: key: +: ELISPOT: Immungenicity of the peptide shown by IFN-gamma ELISPOT analysis; +*: *highlights data from published resources; *highlights data from published resources

Substance	ELISpot: Immungenicity of the peptide shown by IFN-gamma ELISPOT analysis
10 (ETTDLYCY; Human papillomavirus 16) [compound 10]	+
133 (SEYRHYCY; Human papillomavirus 16) [compound 133]	+
134 (IHEIILECVY; Human papillomavirus 16) [compound 134]	+
8 (SKISEYRHYCY; Human papillomavirus 16) [compound 8]	+
132 (TTDLYCYEQL; Human papillomavirus 16) [compound 132]	+
9 (SEYRHYCYSLY; Human papillomavirus 16) [compound 9]	+

same assay, conditions: HLA restriction A02

Substance	ELISpot: Immungenicity of the peptide shown by IFN-gamma ELISPOT analysis
48 (ELQTTIHDI; Human papillomavirus 16) [compound 48]	+
47 (KLPQLCTELQT; Human papillomavirus 16) [compound 47]	+
51 (TLHEYMLDLQP; Human papillomavirus 16) [compound 51]	+

same assay, conditions: HLA restriction A03

Substance	ELISpot: Immungenicity of the peptide shown by IFN-gamma ELISPOT analysis
77 (RCINCQKPLCP; Human papillomavirus 16) [compound 77]	+
71 (KFYSKISEY; Human papillomavirus 16) [compound 71]	+
78 (KQRFHNIRGR; Human papillomavirus 16) [compound 78]	+
67 (MFQDPQERPRK; Human papillomavirus 16) [compound 67]	+
53 (CVYCKQQLLR; Human papillomavirus 16) [compound 53]	+
76 (LIRCINCQK; Human papillomavirus 16) [compound 76]	+
69 (AVCDKCLK; Human papillomavirus 16) [compound 69]	+
54 (TTLEQQYNK; Human papillomavirus 16) [compound 54]	+
136 (GTTLEQQYNK; Human papillomavirus 16) [compound 136]	+
72 (KFYSKISEYR; Human papillomavirus 16) [compound 72]	+
70 (KCLKFYSKI; Human papillomavirus 16) [compound 70]	+

same assay, conditions: HLA restriction A11

Substance	ELISpot: Immungenicity of the peptide shown by IFN-gamma ELISPOT analysis
68 (YAVCDKCLKFY; Human papillomavirus 16) [compound 68]	+
79 (LGIVCPICSQK; Human papillomavirus 16) [compound 79]	+

same assay, conditions: HLA restriction A24

Substance	ELISpot: Immungenicity of the peptide shown by IFN-gamma ELISPOT analysis
94 (HLDKKQRFHNI; Human papillomavirus 16) [compound 94]	+
138 (HYNIVTFC; Human papillomavirus 16) [compound 138]	+
71 (KFYSKISEY; Human papillomavirus 16) [compound 71]	+
96 (AHYNIVTF; Human papillomavirus 16) [compound 96]	+
95 (DKKQRFHN; Human papillomavirus 16) [compound 95]	+
93 (YSLYGTTL; Human papillomavirus 16) [compound 93]	+

same assay, conditions: HLA restriction B07

Substance	ELISpot: Immungenicity of the peptide shown by IFN-gamma ELISPOT analysis
142 (CPDEKQRHL; Human papillomavirus 16) [compound 142]	+
105 (KPLCDLLI; Human papillomavirus 16) [compound 105]	+
104 (RPRKLPQLCT; Human papillomavirus 16) [compound 104]	+
143 (LPQLCTELQT; Human papillomavirus 16) [compound 143]	+
106 (RCMSCCRSSR; Human papillomavirus 16) [compound 106]	+

same assay, conditions: HLA restriction B15

Substance	ELISpot: Immungenicity of the peptide shown by IFN-gamma ELISPOT analysis
125 (SKISEYRHY; Human papillomavirus 16) [compound 125]	+
128 (CQKPLCPEE; Human papillomavirus 16) [compound 128]	+
119 (LRREVYDFAF; Human papillomavirus 16) [compound 119]	+
148 (FYSKISEY; Human papillomavirus 16) [compound 148]	+
123 (FYSKISEY; Human papillomavirus 16) [compound 123]	+
124 (YSKISEYRHY; Human papillomavirus 16) [compound 124]	+
127 (QQYNKPLCDL; Human papillomavirus 16) [compound 127]	+
81 (RAHYNIVTF; Human papillomavirus 16) [compound 81]	+
147 (AGQAEPDRAHY; Human papillomavirus 16) [compound 147]	+
130 (KQRFHNIRGRW; Human papillomavirus 16) [compound 130]	+
131 (GQAEPDRAH; Human papillomavirus 16) [compound 131]	+
121 (AVCDKCLKF; Human papillomavirus 16) [compound 121]	+
129 (KQRHLDKKQRF; Human papillomavirus 16) [compound 129]	+
120 (IVYRDGNPYAV; Human papillomavirus 16) [compound 120]	+
111 (QQLLRREVY; Human papillomavirus 16) [compound 111]	+
126 (SEYRHYCY; Human papillomavirus 16) [compound 126]	+
122 (CLKFYSKISEY; Human papillomavirus 16) [compound 122]	+
145 (KISEYRHY; Human papillomavirus 16) [compound 145]	+
146 (RGRWTGRCM; Human papillomavirus 16) [compound 146]	+
12 (TLHEYMLDL; Human papillomavirus 16) [compound 12]	+
9 (SEYRHYCYSLY; Human papillomavirus 16) [compound 9]	+

same assay, conditions: comparison among the peptides in Table 1

Substance	rates of immunoactivation in PBMC samples, CD8 T cell responses and/or numbers of HPV16 positive cell lines presenting the peptide as HLA-complexes
11 (TIHDIILECV; Human papillomavirus 16) [compound 11]	highest rates of immunoactivation in PBMC samples, to induce the strongest CD8 T cell responses, and/or shown to be presented as HLA-complexes by the highest numbers of HPV16 positive cell lines
18 (RTLEDLLMGT; Human papillomavirus 16) [compound 18]	highest rates of immunoactivation in PBMC samples, to induce the strongest CD8 T cell responses, and/or shown to be presented as HLA-complexes by the highest numbers of HPV16 positive cell lines
53 (CVYCKQQLLR; Human papillomavirus 16) [compound 53]	highest rates of immunoactivation in PBMC samples, to induce the strongest CD8 T cell responses, and/or shown to be presented as HLA-complexes by the highest numbers of HPV16 positive cell lines
81 (RAHYNIVTF; Human papillomavirus 16) [compound 81]	highest rates of immunoactivation in PBMC samples, to induce the strongest CD8 T cell responses, and/or shown to be presented as HLA-complexes by the highest numbers of HPV16 positive cell lines
82 (EYRHYCYSL; Human papillomavirus 16) [compound 82]	highest rates of immunoactivation in PBMC samples, to induce the strongest CD8 T cell responses, and/or shown to be presented as HLA-complexes by the highest numbers of HPV16 positive cell lines
54 (TTLEQQYNK; Human papillomavirus 16) [compound 54]	highest rates of immunoactivation in PBMC samples, to induce the strongest CD8 T cell responses, and/or shown to be presented as HLA-complexes by the highest numbers of HPV16 positive cell lines
2 (HGDTPTLHEY; Human papillomavirus 16) [compound 2]	highest rates of immunoactivation in PBMC samples, to induce the strongest CD8 T cell responses, and/or shown to be presented as HLA-complexes by the highest numbers of HPV16 positive cell lines
1 (ISEYRHYCY; Human papillomavirus 16) [compound 1]	highest rates of immunoactivation in PBMC samples, to induce the strongest CD8 T cell responses, and/or shown to be presented as HLA-complexes by the highest numbers of HPV16 positive cell lines
98 (TPTLHEYML; Human papillomavirus 16) [compound 98]	highest rates of immunoactivation in PBMC samples, to induce the strongest CD8 T cell responses, and/or shown to be presented as HLA-complexes by the highest numbers of HPV16 positive cell lines
13 (YMLDLQPET; Human papillomavirus 16) [compound 13]	highest rates of immunoactivation in PBMC samples, to induce the strongest CD8 T cell responses, and/or shown to be presented as HLA-complexes by the highest numbers of HPV16 positive cell lines
